Data from paper PMC4389562, “Antigiardial activity of novel triazolyl-quinolone-based chalcone derivatives: when oxygen makes the difference” (Frontiers in Microbiology, 2015).
Where two headings read alike, the source gives them in different places.

What was measured:
[1] = tested on: Giardia intestinalis trophozoites; assay: Drug susceptibility of Giardia trophozoites, ATP level by luminescence (BacTiter-Glo), 48 h incubation, anaerobic or microaerobic; assay type: cell-based, Giardia intestinalis strain WB clone C6; conditions: for IC50: Giardia duodenalis, 48 h, 37 °C, ATP level; for selectivity ratio at 48 h: human (Caco-2 cells) versus Giardia intestinalis, Caco-2, SI = IC50,Caco-2/IC50,Giardia
Protocol: Trophozoites of G. intestinalis strain WB clone C6 (ATCC No. 50803TM) were cultured axenically at 37^∘C in 25-cm^2 flasks containing Diamond's TYI-S-33 medium supplemented with 10% bovine calf serum, 1 mg/mL bovine bile, 0.1 g/L streptomycin and 100 U/mL penicillin. Typically, 50 ml medium was inoculated with 25 × 10^6 cells and after 2 days cells were harvested by chilling the flasks on ice for 30 min for drug susceptibility assays. […] The assays were performed following the procedure described in [Bahadur et al. (2014)], using sterile 96-well white clear-bottom plates. […] Each drug concentration was tested in at least six replicates. MTZ was used as an internal positive control in the assay. The microtiter plates were then incubated at 37^∘C under anaerobic or microaerobic conditions, ensured by the Anaerocult® A or the Anaerocult® […] (Merck), respectively. […] Following 48 h incubation with the compound to be tested, 100 μL of the BacTiter-Glo^TM Microbial Cell Viability Assay System reagent (Promega) was added to each well for one-step lysis and ATP level detection. Plates were then incubated at room temperature for 15 min and ATP levels finally detected by luminescence on a plate reader (Wallac Victor3 1420 Multilabel Counter, PerkinElmer). Luminometric data were calibrated using ATP standard curves and normalized to the ATP level measured in control DMSO-treated cells (taken as 100%). The measured ATP level percentage was plotted as a function of the compound concentration and the half-maximal inhibitory concentration (IC50) was obtained by fitting the resulting titration profile to the Hill equation ([Goutelle et al., 2008]). The selectivity index (SI) of the compounds was then calculated as the ratio between the IC50 value measured on human cells over the value determined on Giardia trophozoites (SI = IC50,Caco-2/IC50,Giardia). The antigiardial activity of the novel compounds 23-67 was tested under both anaerobic and microaerobic conditions. According to ([Dunn et al., 2010]; [Bahadur et al., 2014]), susceptibility of Giardia trophozoites to increasing concentrations of each compound was assessed based on ATP level determination by luminescence. Dose-response curves for each compound were obtained after 48 h-incubation and compared to the data collected under identical conditions with MTZ, the drug of choice for treatment of giardiasis. […] Typical dose-response curves are shown in Figure 2, whereas the IC50 values measured for the synthetic compounds and MTZ under anaerobic and microaerobic conditions are reported in Table 1. […] Under anaerobic conditions, 18 out of the 45 synthetic compounds were as effective as MTZ or more under identical conditions (see Table 1).

Caco-2 cells = assay: Counter-screen on Caco-2 cells, ATP level by luminescence (ATPlite), 48 h incubation; assay type: cell-based, human; conditions: atmospheric O2, 5% CO2, 48 h, 37 °C
Protocol: Trophozoites of G. intestinalis strain WB clone C6 (ATCC No. 50803TM) were cultured axenically at 37^∘C in 25-cm^2 flasks containing Diamond’s TYI-S-33 medium supplemented with 10% bovine calf serum, 1 mg/mL bovine bile, 0.1 g/L streptomycin and 100 U/mL penicillin. […] Human epithelial colorectal adenocarcinoma (Caco-2) cells were grown in 25-cm^2 flasks in EMEM supplemented with 1% (v/v) non-essential amino acids, 2 mM glutamine, 5% (v/v) fetal bovine serum, 0.1 g/L streptomycin, and 100 U/mL penicillin.
Cells were detached with 0.5% trypsin-EDTA and seeded in sterile 96-well white clear-bottom plates at the same density of Giardia trophozoites and at increasing concentration of the compound to be tested, as described above. The assays were carried out exactly as reported for the Giardia trophozoites, except that the plates were incubated (still at 37^∘C) at atmospheric O2 level, 5% CO2, and 95% humidity. Each drug concentration was tested in at least seven replicates. MTZ was used as an internal […] control in the assay. Following 48 h incubation with each compound, according to the manufacturer instructions, 100 μL of the ATPlite^TM luminescence assay system (Perkin Elmer) was added to each well for one-step lysis and ATP level detection by luminescence.
Luminometric data were calibrated using ATP standard curves and normalized to the ATP level measured in control DMSO-treated cells (taken as 100%). The measured ATP level percentage was plotted as a function of the compound concentration and the half-maximal inhibitory concentration (IC50) was obtained by fitting the resulting titration profile to the Hill equation ([Goutelle et al., 2008]). The selectivity index (SI) of the compounds was then calculated as the ratio between the IC50 value measured on human cells over the value determined on Giardia trophozoites (SI = IC50,Caco-2/IC50,Giardia).
Selectivity of the newly synthesized compounds toward Giardia was assessed by running a counter-screen on human epithelial Caco-2 cells. […] This allowed us to calculate the compounds SI, defined as the ratio between the IC50 value measured on human cells over the value determined on Giardia trophozoites.

[2] = anaerobic conditions (Anaerocult A), read-out: Giardia (anaerobiosis) IC50
[3] = microaerobic conditions (~5% O2, Anaerocult C), read-out: Giardia (microaerobiosis) IC50
[4] = Giardia under anaerobiosis, read-out: Selectivity (IC50,Caco/IC50,Giardia) Anaerobiosis
[5] = Giardia under microaerobiosis, read-out: Selectivity (IC50,Caco/IC50,Giardia) Microaerobiosis

| SMILES | IC50 [1, 2] | IC50 [1, 3] | selectivity ratio at 48 h [1, 4] | selectivity ratio at 48 h [1, 5] | IC50 (Caco-2 cells; Homo sapiens, Caco-2, 48 h) | melting point | IC50 (Caco-2 cells) |
| --- | --- | --- | --- | --- | --- | --- | --- |
| O=C(/C=C/c1cc2ccccc2n(Cc2cn(-c3ccc(Cl)cc3)nn2)c1=O)c1ccc(Cl)cc1 [Compound 53] | 9 µM | 1.1 µM | ≥ 3 | ≥ 27 | ≥ 30 µM | 180 to 182 °C |  |
| COc1cccc(C(=O)/C=C/c2cc3ccccc3n(Cc3cn(-c4ccc(F)cc4)nn3)c2=O)c1 [Compound 48] | 7 µM | 1.6 µM | ≥ 8 | ≥ 37 | ≥ 60 µM | 220 to 222 °C |  |
| O=C(/C=C/c1cc2ccccc2n(Cc2cn(-c3ccccc3)nn2)c1=O)c1cccc(F)c1 [Compound 60] | 3.5 µM | 0.7 µM | ≥ 14 | ≥ 71 | ≥ 50 µM | 180 to 182 °C |  |
| COc1ccccc1C(=O)/C=C/c1cc2ccccc2n(Cc2cn(-c3ccc(Cl)cc3)nn2)c1=O [Compound 56] | 3.2 µM | 0.6 µM | 2.6 | 14 | 8.4 µM | 230 to 232 °C |  |
| O=C(/C=C/c1cc2ccccc2n(Cc2cn(-c3ccc(Cl)cc3)nn2)c1=O)c1ccc(F)cc1 [Compound 52] | 8.9 µM | 1.2 µM | 2.7 | 19.9 | 23.9 µM | 216 to 218 °C |  |
| COc1ccc(C(=O)/C=C/c2cc3ccccc3n(Cc3cn(-c4ccc(OC)cc4)nn3)c2=O)cc1 [Compound 31] | ≥ 50 µM | 2 µM |  | ≥ 40 | ≥ 80 µM | 190 to 192 °C |  |
| COc1cccc(C(=O)/C=C/c2cc3ccccc3n(Cc3cn(-c4ccccc4)nn3)c2=O)c1 [Compound 66] | 3.2 µM | 1.6 µM | > 15 | > 30 | ≥ 40 µM | 224 to 226 °C | ≥ 50 µM |
| Cc1ccc(-n2cc(Cn3c(=O)c(/C=C/C(=O)c4ccc(Cl)cc4)cc4ccccc43)nn2)cc1 [Compound 35] | 2.4 µM | 0.8 µM | 2.9 | 8.8 | 7 µM | 196 to 198 °C |  |
| COc1ccc(C(=O)/C=C/c2cc3ccccc3n(Cc3cn(-c4ccc(C)cc4)nn3)c2=O)cc1 [Compound 40] | ≥ 15 µM | 2.4 µM |  | ≥ 25 | ≥ 60 µM | 182 to 184 °C |  |
| COc1ccc(-n2cc(Cn3c(=O)c(/C=C/C(=O)c4ccccc4F)cc4ccccc43)nn2)cc1 [Compound 23] | ≥ 100 µM | ≥ 20 µM |  |  | ≥ 100 µM | 215 to 217 °C |  |
| O=C(/C=C/c1cc2ccccc2n(Cc2cn(-c3ccccc3)nn2)c1=O)c1ccc(F)cc1 [Compound 61] | 5.3 µM | 0.8 µM | 3.4 | 22.8 | 18.2 µM | 202 to 204 °C |  |
| COc1ccc(-n2cc(Cn3c(=O)c(/C=C/C(=O)c4ccc(F)cc4)cc4ccccc43)nn2)cc1 [Compound 25] | 3.9 µM | 1.3 µM | ≥ 5 | ≥ 15 | ≥ 20 µM | 211 to 213 °C |  |
| Cc1ccc(-n2cc(Cn3c(=O)c(/C=C/C(=O)c4ccccc4F)cc4ccccc43)nn2)cc1 [Compound 32] | 3.2 µM | 0.6 µM | 5.5 | 29.3 | 17.6 µM | 197 to 199 °C |  |
| O=C(/C=C/c1cc2ccccc2n(Cc2cn(-c3ccc(Cl)cc3)nn2)c1=O)c1ccccc1F [Compound 50] | 4.7 µM | 0.9 µM | ≥ 10 | ≥ 55 | ≥ 50 µM | 242 to 244 °C |  |
